Measurements reported in ChEMBL document CHEMBL1153339, “Design, synthesis, and anti-HCV activity of thiourea compounds” (Bioorg Med Chem Lett, 2009).

Legend:
[1] = Selectivity index, ratio of CC50 for human Ava5 cells to EC50 for HCV 1b
[2] = Cytotoxicity against human Ava5 cells; format: cell-based
Hepatitis C virus = experiment: Antiviral activity against HCV 1b infected in human Ava5 cells expressing EG(delta-4AB)SEAP fusion protein by subgenomic replicon assay; format: functional, organism-based, Hepacivirus hominis; conditions: genotype 1b

Row | Compound | Ratio CC50/EC50 [1] | CC50 [2] | EC50 (Hepatitis C virus)
1 | NC(=S)Nc1cccc(OCc2ccccc2)c1 | >89 | > 50000 nM | 561 nM
2 | NC(=S)Nc1cccc(OCCCCCOc2ccc(Cl)cc2)c1 | 97 | 7000 nM | 72 nM
3 | CCN(CC)c1ccc(OCCCCCOc2cccc(NC(N)=S)c2)cc1 | >84 | > 50000 nM | 594 nM
4 | NC(=S)Nc1cccc(OCCCCCOc2cccc(Oc3ccccc3)c2)c1 | 168 | 18000 nM | 107 nM
5 | NC(=S)Nc1cccc(OCCCCCOc2cccc3ccccc23)c1 | 241 | 14000 nM | 58 nM
6 | NC(=S)Nc1cccc(OCCCCCOc2ccc(N3CCCCC3)cc2)c1 | 29 | 12000 nM | 407 nM
7 | NC(=S)Nc1cccc(OCCCCc2ccccc2)c1 | >314 | > 50000 nM | 159 nM
8 | NC(=S)Nc1ccccc1OCCCCCc1ccccc1 | 31 | 31000 nM | 1010 nM
9 | NC(=S)Nc1cccc(OCCCCCOc2ccncc2)c1 | >17 | > 50000 nM | 2990 nM
10 | NC(=S)Nc1cccc(OCCCCCOc2cccc3cnccc23)c1 | 54 | 26000 nM | 481 nM
11 | NC(=S)Nc1cccc(OCCCCCOc2ccc(C(=O)O)cc2)c1 | >1 | > 50000 nM | > 50000 nM
12 | NC(=S)Nc1cccc(OCCCCCOc2ccc(N3CCOCC3)cc2)c1 | >103 | > 50000 nM | 485 nM
13 | NC(=S)Nc1cccc(OCCCCCOc2ccccc2)c1 | >847 | > 50000 nM | 59 nM
14 | NC(=S)Nc1cccc(OCCCCCOc2cccc(C(=O)c3ccccc3)c2)c1 | 60 | 13000 nM | 218 nM
15 | NC(=S)Nc1cccc(OCCCCCOc2ccc(-c3ccco3)cc2)c1 | 81 | 11000 nM | 136 nM
16 | NC(=S)Nc1cccc(OCCCCCc2ccccc2)c1 | 458 | 22000 nM | 48 nM
17 | COc1ccc(OCCCCCOc2cccc(NC(N)=S)c2)cc1 | >229 | > 50000 nM | 218 nM
18 | CNC(=S)Nc1cccc(OCCCCCc2ccccc2)c1 | >61 | > 50000 nM | 822 nM
19 | NC(=S)Nc1cccc(OCCCCCOc2ccc(F)cc2)c1 | 69 | 5000 nM | 72 nM
20 | S=C(NCCc1ccccc1)Nc1cccc(OCCCCCc2ccccc2)c1 | 2 | 33000 nM | 13400 nM
21 | S=C(Nc1ccccc1)Nc1cccc(OCCCCCc2ccccc2)c1 | 1 | 35000 nM | 31500 nM
22 | NC(=S)Nc1cccc(OCCCCCOc2cccc(Nc3ccccc3)c2)c1 | 62 | 11000 nM | 177 nM
23 | NC(=S)Nc1cccc(OCCc2ccccc2)c1 | >149 | > 50000 nM | 335 nM
24 | NC(=S)Nc1cccc(Oc2ccccc2)c1 | >101 | > 50000 nM | 494 nM

Row | Compound | Ratio CC50/EC50 [1] | CC50 [2] | EC50 (Hepatitis C virus)
25 | CCNC(=S)Nc1cccc(OCCCCCc2ccccc2)c1 | >73 | > 50000 nM | 685 nM
26 | NC(=S)Nc1cccc(OCCCCCOc2ccc(N3CCCC3)cc2)c1 | 18 | 16000 nM | 913 nM
27 | NC(=S)Nc1cccc(OCCCCCOc2ccccn2)c1 | >179 | > 50000 nM | 279 nM
28 | NC(=S)Nc1cccc(OCCCCCCCc2ccccc2)c1 | 237 | 23000 nM | 97 nM
29 | NC(=S)Nc1cccc(OCCCCCOc2cccc(Cc3ccccc3)c2)c1 | 224 | 13000 nM | 58 nM
30 | NC(=S)Nc1cccc(OCCCCCOc2ccc(-c3ccccc3)cc2)c1 | >262 | > 50000 nM | 191 nM
31 | S=C(NCc1ccccc1)Nc1cccc(OCCCCCc2ccccc2)c1 | 4 | 32000 nM | 7240 nM
32 | NC(=S)Nc1cccc(OCCCCCOc2ccnc3ccccc23)c1 | 58 | 24000 nM | 411 nM
33 | NC(=S)Nc1cccc(OCCCCCCc2ccccc2)c1 | 596 | 28000 nM | 47 nM
34 | NC(=S)Nc1cccc(OCCCCCOc2ccc(-c3cccs3)cc2)c1 | >413 | > 50000 nM | 121 nM
35 | NC(=S)Nc1cccc(OCCCCCOc2cccc3ncccc23)c1 | 60 | 15000 nM | 250 nM
36 | NC(=S)Nc1cccc(OCCCCCOc2ccccc2-c2ccccc2)c1 | 134 | 13000 nM | 97 nM
37 | CC(C)(CCOc1ccccc1)CCOc1cccc(NC(N)=S)c1 | 124 | 13000 nM | 105 nM
38 | NC(=S)Nc1cccc(OCCCCCOc2cccc3[nH]ccc23)c1 | >141 | > 50000 nM | 355 nM
39 | CC(CCOc1ccccc1)CCOc1cccc(NC(N)=S)c1 (stereo unspecified) | >481 | > 50000 nM | 104 nM
40 | NC(=S)Nc1cccc(OCCCCCOc2cccc(-c3ccccc3)c2)c1 | 61 | 13000 nM | 214 nM
41 | NC(=S)Nc1cccc(OCCCCCOc2ccc(Br)cc2)c1 | 264 | 19000 nM | 72 nM
42 | NC(=S)Nc1cccc(OCCCc2ccccc2)c1 | >216 | > 50000 nM | 231 nM
43 | CCCNC(=S)Nc1cccc(OCCCCCc2ccccc2)c1 | 45 | 32000 nM | 708 nM
44 | NC(=S)Nc1cccc(NCCCCCc2ccccc2)c1 | >350 | > 50000 nM | 143 nM
45 | NC(=S)Nc1ccc(OCCCCCc2ccccc2)cc1 | 51 | 10000 nM | 197 nM
46 | NC(=S)Nc1cccc(OCCCCCOc2cccnc2)c1 | >44 | > 50000 nM | 1130 nM
47 | NC(=S)Nc1cccc(OCCCCCOc2ccc(-n3cccc3)cc2)c1 | >196 | > 50000 nM | 255 nM
